The text below walks through data of patent US20150335678A1, “METHOD OF ACTIVATING STEM CELLS IN AN ANIMAL AND THE USE OF CHLORINE DIOXIDE FOR PREPARING MEDICINES FOR ACTIVATING STEM CELLS IN AN ANIMAL” (priority 2012, published 2015).

The data set deals with APTT, PT and TT (blood coagulation and fibrinolysis systems). Description: Side effects in lower limb DVT patients: APTT, PT, TT and pain.

Protocol: Chlorine dioxide solution was administered to the patients through the contralateral femoral artery puncture (sick side) for 14 consecutive days, a dose of 10 ml/body/day. Before injection, use 2 ml-5 ml lidocaine of 2% to perform infiltration anesthesia at puncture point.

For `[O][Cl+][O-]` [chlorine dioxide solution, chlorine dioxide], the “duration of stabbing pain after injection without anesthetic” value (almost all the patients, day one after administration) worked out at 30 min. Besides, where the note is “before, day 7 and day 14 after administration, lower limb DVT patients, 10 ml/body/day femoral artery puncture”, the “APTT, PT and TT, before vs after administration” value is given as “no significant differences”. For the same compound, the “side effects by administration” value (lower limb DVT patients, 10 ml/body/day femoral artery puncture, 14 days) is reported as “no occurrence of side effects”.
